According to PMC4603705, “A bioinspired peptide scaffold with high antibiotic activity and low in vivo toxicity” (Scientific Reports, 2015):
In brackets after ≈: the same amount, converted by molar mass. Entries after “also recorded” stand apart in the source; their conditions may differ. Bridge positions count the residues as written; N and C are the ends. Square brackets hold non-standard residues; d marks the D form. Peptide text beside a SMILES is read from it. * marks the point of attachment. Decanoyl = CCCCCCCCCC(=O)*; Nle = CCCC[C@H](N)C(=O)O; Dab = NCC[C@H](N)C(=O)O

Key:
P. aeruginosa ATTC 9027 = format: cell-based, Pseudomonas aeruginosa; details: ATTC 9027
Method: (§1) MICs were measured after 18–20 h of incubation in sterile 96-well plates (Corning Costar 3598 microtiter plates) in Mueller Hinton Broth (MHB) culture medium, (Difco, USA), according to well known in vitro protocols. Bacterial strains in Table 1 were: P. aeruginosa ATTC 9027, E. coli ATTC 8739, S. aureus ATTC 6538, and E. faecalis ATTC 29212. MICs shown in table 4 were performed by Mary Conrad at Cubist Pharmaceuticals (Lexington, MA) in non-binding surface plates.

E. coli ATTC 8739 = format: cell-based, Escherichia coli; details: ATTC 8739
Method: as §1

E. coli = system: E. coli
Method: (§2) Strains of E. coli and P. aeruginosa with resistance to quinolones and carbapenems as well as multi-drug-resistant bacteria were tested.
as §1

P. aeruginosa = system: P. aeruginosa
Method: as §2, §1

[1] = In vivo acute toxicity test (up-and-down procedure, OECD 425); set-up: species or system mice; details: mouse, in vivo, sc; CD-1 mice, subcutaneous, up-and-down procedure, maximum likelihood method, 14 days
Method: (§3) An in vivo acute toxicity test was performed on CD-1 mice. The lethal dose (LD50) was determined according to the up-and-down procedure. Compound 38 was administered subcutaneously at designated doses (100, 200 and 400 mg/kg).
(§4) The evaluation of acute toxicity was conducted based on OECD 425 (Acute Oral Toxicity – Up-and-Down-Procedure (UDP) March 2006). The procedure was evaluated and accepted by the Ethical Committee of Experimental Animals of the University of Barcelona.
(§5) The main test consists of a single ordered dose progression in which animals are dosed, one at a time, at a minimum of 24-hour intervals.
(§6) Compound 38 was dissolved in PBS (pH 7.4), and administered subcutaneously to CD-1 mice at selected doses (100, 200 and 400 mg/kg). Since 5 reversals occurred in 6 consecutive animals tested between the 200 mg/Kg dose (the 3 animals, survived), and the 400 mg/Kg dose (the 3 animals died) the test was stopped.
(§7) Mortality was monitored for 14 days post-treatment, and LD50 was determined using the maximum likelihood method.

CD-1 mice = test: as above; details: for Outcome of mice: CD-1 mice
Method: as §3, §4, §5, §6, §7

E. coli (ATCC 25922) [2] = test: Flow cytometry (PI membrane permeability, BOX membrane potential), E. coli; format: cell-based, Escherichia coli; details: 4 μg/mL
Method: (§8) The mechanism of action at the membrane level of our best candidate was studied using flow cytometry. To assess membrane permeability, a propidium iodide (PI) probe was used[43][44]. The fluorescence conferred by this probe is generally associated with cells that have lost their membrane integrity. The effect on membrane potential was evaluated with bis-(1,3-dibutylbarbituric acid) trimethine oxonol (BOX). Membrane depolarization leads to the incorporation of this anionic dye into the cell where it binds to lipid-rich intracellular compounds, resulting in an increase in fluorescence.
(§9) An overnight culture (12 to 16 h) of S. aureus (ATCC 29213) or E. coli (ATCC 25922) in Tryptic Soy Broth (TSB) was grown at 37 °C and 400 μL were added in 50 mL of tryptone water (∼10^7 bacteria/mL). The bacterial suspension was split into aliquots of 4-5 mL and treated with the peptides (at the MIC) for different incubation times at room temperature. Cells were collected by centrifugation (10000 rpm, 20 min) and resuspended in 1 mL of filtered Ringer’s solution.
(§10) A stock solution of propidium iodide (PI, 1 mg/mL, Molecular Probes) and bis-(1,3-dibutylbarbituric acid) trimethine oxonol (BOX, 250 μM, Sigma Aldrich) was prepared in distilled water. Portions (10 μL and 2 μL, respectively) were added to aliquots of cells (100 μL of each sample in 1 mL of Ringer’s solution) to give a final concentration of 10 μg/mL of PI and 0.5 μM for BOX.
(§11) Flow cytometric measurements were performed on a Gallios multi-colour flow cytometer instrument (Beckman Coulter, Inc, Fullerton, CA) set up with the 3-lasers 10 colors standard configuration. Excitation was done using a blue (488 nm) laser. Forward scatter (FS), side scatter (SS), green fluorescence (525/40 nm) from BOX and red fluorescence (620/30 nm) emitted by PI were collected using logarithmic scales. FS was used as the discriminating parameter. The single-cell bacterial population was selected on a forward-side scatter plot. Fluorescence was presented in a dot plot of BOX vs. PI. Three regions were defined on this graph according to the controls: depolarized, permeabilized and non-affected cells. Control cells (non-stained and single stained populations) were used to define these regions. 25,000 cells defined according to their scatter parameters were counted in each sample.

S. aureus (ATCC 29213) [3] = test: Flow cytometry (PI membrane permeability, BOX membrane potential), S. aureus; format: cell-based, Staphylococcus aureus; details: 4 μg/mL
Method: as §8, §9, §10, §11

E. coli (ATCC 25922) [4] = test: Reduction of viability by plate count, E. coli; format: cell-based, Escherichia coli; details: 4 μg/mL
Method: as §9

S. aureus (ATCC 29213) [5] = test: Reduction of viability by plate count, S. aureus; format: cell-based, Staphylococcus aureus; details: 4 μg/mL
Method: as §9

E. coli (ATCC 25922) [6] = test: Transmission electron microscopy of treated E. coli; format: cell-based, Escherichia coli; details: 120 min, 2 μg/mL (Figure 2 legend)
Method: (§12) An overnight culture (12 to 16 h) of S. aureus (ATCC 29213) or E. coli (ATCC 25922) in Tryptic Soy Broth (TSB) was grown at 37 °C and 500 μL were added in 50 mL of tryptone water (∼10^8 bacteria/mL). […] Cells were collected by centrifugation (10000 rpm, 20 min).
(§13) Samples were fixed with 2.5% glutaraldehyde in phosphate buffer for 2 h at 4 °C, then washed with the same buffer and post fixed with 1% osmium tetroxide in buffer containing 0.8% potassium ferricyanide at 4 °C. The samples were then dehydrated for 1 hour in acetone and infiltrated in a gradded series of Epon resin (Ted Pella Inc., USA) during 2 days, and finally embedded in fresh Epon resin and polymerised at 60 °C during 48 hours.
(§14) Ultrathin sections were obtained using a Leica Ultracut UCT ultramicrotome (Leica, Vienna) and mounted on Formvar-coated copper grids. Sections were stained with 2% aqueous uranyl acetate and lead citrate and examined in a JEM-1010 electron microscope (Jeol, Japan).

S. aureus (ATCC 29213) [7] = test: Transmission electron microscopy of treated S. aureus; format: cell-based, Staphylococcus aureus; details: 4 μg/mL, 120 min
Method: as §12, §13, §14

[8] = resistant to nalidixic acid, cotrimoxazole and ampicillin

Compound: CCCCCCCCCC(=O)N[C@@H](CCN)C(=O)N[C@H](C(=O)N[C@@H](CCN)C(=O)N[C@H]1CSSC[C@H](C(N)=O)NC(=O)[C@H](CCN)NC(=O)[C@H](CCN)NC(=O)[C@H](CCCC)NC(=O)[C@@H](Cc2ccccc2)NC(=O)[C@H](CCN)NC1=O)[C@@H](C)O [Analog 38, decanoyl -Dab-Thr-Dab-Cys-Dab-Phe-Nle-Dab-Dab-Cys] (Decanoyl-[Dab]T[Dab]C[Dab][dF][Nle][Dab][Dab][dC]-NH2; disulfide 4-10)
- MIC P. aeruginosa (P. aeruginosa ATTC 9027): 1 µg/mL (≈ 0.808 µM)
- MIC E. coli (E. coli ATTC 8739): 2 µg/mL (≈ 1.62 µM)
- MIC E. coli NDM-1 (E. coli; highly-resistant, New Delhi metallo-beta-lactamase gene): 0.5 µg/mL (≈ 0.404 µM)
- MIC E. coli VAL 5 (E. coli; resistant to nalidixic acid): 0.5 µg/mL (≈ 0.404 µM)
- MIC E. coli MAC 21a (E. coli; [8]): 0.5 µg/mL (≈ 0.404 µM)
- MIC E. coli VAL 10 (E. coli; [8]): 0.5 µg/mL (≈ 0.404 µM)
- MIC P. aeruginosa 38a (P. aeruginosa): 0.5 µg/mL (≈ 0.404 µM)
- MIC P. aeruginosa 40b (P. aeruginosa): 4 µg/mL (≈ 3.23 µM)
- LD50 at 14 days [1]: 283 mg/kg
- Outcome of mice (CD-1 mice; 100 mg/kg subcutaneous): survived with no signs of toxicity
- Outcome of mice (CD-1 mice; 200 mg/kg subcutaneous): survived with no signs of toxicity; also recorded: survived
- Necropsy of surviving mice (CD-1 mice; 200 mg/kg subcutaneous, after 14 days): no signs of pathology in vital organs
- Outcome of mice (CD-1 mice; 400 mg/kg subcutaneous): died
- LD50 relative to LD50 of PxB (CD-1 mice; subcutaneous): ~5 times
- % of stained cells PI (E. coli (ATCC 25922) [2]; 30 min): 7%
- % of stained cells BOX (E. coli (ATCC 25922) [2]; 30 min, listed as 38): around 50%
- % of stained cells BOX (E. coli (ATCC 25922) [2]; 30 min, listed as #38): 47%
- % of stained cells BOX (E. coli (ATCC 25922) [2]; 60 min): 50%
- % of stained cells PI (E. coli (ATCC 25922) [2]; 60 min): 23%
- % of stained cells BOX (E. coli (ATCC 25922) [2]; 120 min): 47%
- % of stained cells PI (E. coli (ATCC 25922) [2]; 120 min): 43%
- % of stained cells BOX (S. aureus (ATCC 29213) [3]; 30 min): 1%
- % of stained cells PI (S. aureus (ATCC 29213) [3]; 30 min): 2%
- % of stained cells BOX (S. aureus (ATCC 29213) [3]; 60 min): 1%
- % of stained cells PI (S. aureus (ATCC 29213) [3]; 60 min): 3%
- % of stained cells BOX (S. aureus (ATCC 29213) [3]; 120 min): 4%
- % of stained cells PI (S. aureus (ATCC 29213) [3]; 120 min): 4%
- % viability reduction (E. coli (ATCC 25922) [4]; 30 min): 20%
- % viability reduction (E. coli (ATCC 25922) [4]; 60 min): 60%
- % viability reduction (E. coli (ATCC 25922) [4]; 120 min): 85%
- % viability reduction (S. aureus (ATCC 29213) [5]; 30 min): 15%
- % viability reduction (S. aureus (ATCC 29213) [5]; 60 min): 60%
- % viability reduction (S. aureus (ATCC 29213) [5]; 120 min): 85%
- Effect on cell morphology (TEM) (E. coli (ATCC 25922) [6]): abnormal membrane septation and the formation of blebs on the bacterial surface
- Effect on cell morphology (TEM) (S. aureus (ATCC 29213) [7]): numerous double-layered spherical mesosome-like structures
